Patent publication US9656962B2, “Ring-contracted morphinans and the use thereof” (Purdue Pharma L.P., priority 2013, dated 2017)

Legend:
κ-opioid receptor [1] = biological target: T1, κ-opioid receptor (Homo sapiens (Human), UniProt P41145); assay: κ-opioid receptor [35S]GTPγS functional assay, U-2 OS cells (Table 5); type: biochemical; conditions: for Emax: relative to U69,593; for EC50: κ GTP
Procedure, shortened: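 [35S]GTPγS binding in κ receptor membranes (0.026 μg/μl protein) with 10 μg/mL saponin, 3 μM GDP and 0.20 nM [35S]GTPγS in pH 7.4 HEPES/NaCl/MgCl2 buffer. Agonist incubation lasted 30 min at about 25 °C, followed by filtration and scintillation counting. Emax is expressed relative to U69,593.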

κ-opioid receptor [2] = biological target: T1, κ-opioid receptor; assay: κ-opioid receptor [35S]GTPγS functional assay, HEK-293 or CHO cells (Table 4); type: biochemical; conditions: for Emax: relative to U69,593; for EC50: κ GTP
Procedure: κ-Opioid Receptor Functional Assay Procedures: Functional [^35S]GTPγS binding assays were conducted as follows. κ opioid receptor membrane solution was prepared by sequentially adding final concentrations of 0.026 μg/μl κ membrane protein (in-house), 10 μg/mL saponin, 3 μM GDP and 0.20 nM [^35S]GTPγS to binding buffer (100 mM NaCl, 10 mM MgCl2, 20 mM HEPES, pH 7.4) on ice. The prepared membrane solution (190 μl/well) was transferred to 96-shallow well polypropylene plates containing 10 μl of 20× concentrated stock solutions of agonist prepared in DMSO. Plates were incubated for 30 min at a temperature of about 25° C. with shaking. Reactions were terminated by rapid filtration onto 96-well Unifilter GF/B filter plates (Perkin Elmer, Shelton, Conn.) using a 96-well tissue harvester (Packard) and followed by three filtration washes with 200 μl ice-cold binding buffer (10 mM NaH2PO4, 10 mM Na2HPO4, pH 7.4). Filter plates were subsequently dried at 50° C. for 2-3 hours. Fifty μl/well scintillation cocktail (Perkin Elmer, Shelton, Conn.) was added and plates were counted in a Packard Top-Count for 1 min/well.
κ GTP Emax (%) is the maximal effect elicited by a compound relative to the effect elicited by U69,593.
In TABLE 4, activity response of certain Compounds of the Invention to the μ- and κ-opioid receptors was determined as described above for functional assays using HEK-293 or CHO cells.

μ-opioid receptor [3] = biological target: T2, μ-opioid receptor (Homo sapiens (Human), UniProt P35372); assay: μ-opioid receptor [35S]GTPγS functional assay, HEK-293 or CHO cells (Table 4); type: biochemical; conditions: for Emax: relative to DAMGO; for EC50: μ GTP
Procedure, shortened: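 Membranes from HEK-293, CHO or U-2 OS cells (or commercial) expressing recombinant μ receptor; 0.20 nM [35S]GTPγS, 3 mM GDP, saponin, in 100 mM NaCl/10 mM MgCl2/20 mM HEPES pH 7.4.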

μ-opioid receptor [4] = biological target: T2, μ-opioid receptor; assay: μ-opioid receptor [35S]GTPγS functional assay, U-2 OS cells (Table 5); type: biochemical; conditions: for Emax: relative to DAMGO; for EC50: μ GTP
Procedure, shortened: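 Membranes (0.026 mg/mL) from cells expressing recombinant human μ-opioid receptor in a U-2 OS background were incubated with 0.20 nM [35S]GTPγS, 3 mM GDP and saponin in 20 mM HEPES pH 7.4, 100 mM NaCl, 10 mM MgCl2 for 30 min at about 25 °C. Filter-bound radioactivity counted; sigmoidal dose-response fits gave values, Emax relative to DAMGO.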

[5] = biological target: recombinant human kappa opioid receptor (κ) (Homo sapiens (Human), UniProt P41145); assay: κ-opioid receptor radioligand binding assay ([3H]-U69,593); conditions: binding affinity
Procedure: κ-Opioid Receptor Binding Assay Procedures: Membranes from HEK-293 cells, CHO cells or U-2 OS cells expressing the recombinant human kappa opioid receptor (κ) were prepared by lysing cells in ice cold hypotonic buffer (2.5 mM MgCl2, 50 mM HEPES, pH 7.4) (10 mL/10 cm dish) followed by homogenization with a tissue grinder/Teflon pestle. Membranes from a cell line naturally expressing kappa opioid receptor can also be used. Membranes were collected by centrifugation at 30,000×g for 15 min at 4° C. and pellets were resuspended in hypotonic buffer to a final concentration of 1-3 mg/mL. Protein concentrations were determined using the BioRad protein assay reagent with bovine serum albumen as standard. Aliquots of κ receptor membranes were stored at −80° C.
Radioligand dose displacement assays used 0.4 nM [^3H]-U69,593 (GE Healthcare, Piscataway, N.J.; 40 Ci/mmole) with 15 μg membrane protein (recombinant opioid receptor expressed in HEK 293 cells; in-house prep) in a final volume of 200 μl binding buffer (5% DMSO, 50 mM Trizma base, pH 7.4). Non-specific binding was determined in the presence of 10 μM unlabeled naloxone or U69,593. All reactions were performed in 96-well polypropylene plates for 1 hour at a temperature of about 25° C. Binding reactions were terminated by rapid filtration onto 96-well Unifilter GF/C filter plates (Perkin Elmer, Shelton, Conn.) presoaked in 0.5% polyethylenimine (Sigma). Harvesting was performed using a 96-well tissue harvester (Perkin Elmer, Shelton, Conn.) followed by five filtration washes with 200 μl ice-cold binding buffer. Filter plates were subsequently dried at 50° C. for 1-2 hours. Fifty μl/well scintillation cocktail (Perkin Elmer, Shelton, Conn.) was added and plates were counted in a Packard Top-Count for 1 min/well.

μ-opioid receptor [6] = biological target: T2, μ-opioid receptor; assay: μ-opioid receptor radioligand binding assay ([3H]-diprenorphine); conditions: binding affinity
Procedure: μ-Opioid Receptor Binding Assay Procedures: Radioligand dose-displacement binding assays for μ-opioid receptors used 0.3 nM [^3H]-diprenorphine (Perkin Elmer, Shelton, Conn.), with […] membrane protein/well in a final volume of 500 μl binding buffer (10 mM MgCl2, 1 mM EDTA, 5% DMSO, 50 mM HEPES, pH 7.4). Reactions were carried out in the absence or presence of increasing concentrations of unlabeled naloxone. All reactions were conducted in 96-deep well polypropylene plates for 2 hours at room temperature. Binding reactions were terminated by rapid filtration onto 96-well Unifilter GF/C filter plates (Perkin Elmer, Shelton, Conn.), presoaked in 0.5% polyethylenimine using a 96-well tissue harvester (Perkin Elmer, Shelton, Conn.) followed by performing three filtration washes with 500 μl of ice-cold binding buffer. Filter plates were subsequently dried at 50° C. for 2-3 hours. BetaScint scintillation cocktail (Perkin Elmer, Shelton, Conn.) was added (50 μl/well), and plates were counted using a Packard Top-Count for 1 min/well. The data were analyzed using the one-site competition curve fitting functions in GraphPad PRISM™ v. 3.0 or higher (San Diego, Calif.), or an in-house function for one-site competition curve-fitting.

Structure (SMILES) | Emax (κ-opioid receptor [1]) [%] | EC50 (κ-opioid receptor [1]) [nM] | Emax (κ-opioid receptor [2]) [%] | EC50 (κ-opioid receptor [2]) [nM] | Emax (μ-opioid receptor [3]) [%] | EC50 (μ-opioid receptor [3]; bound given in μM) [µM] | Emax (μ-opioid receptor [4]) [%] | EC50 (μ-opioid receptor [4]) [nM] | Ki [5] [nM] | EC50 (μ-opioid receptor [3]) [µM] | Ki (μ-opioid receptor [6]) [nM]
CC(C)CNC(=O)[C@H]1C[C@]23CCN(CC4CC4)[C@H](Cc4ccc(O)cc42)[C@]3(O)C1 [Compound 36, (2S,3aS,4R,9bS)-12-(cyclopropylmethyl)-3a,8-dihydroxy-N-isobutyl-1,2,3,3a,4,5-hexahydro-4,9b-(epiminoethano)-cyclopenta[a]naphthalene-2-carboxamide] | 108 ± 4.1 | 0.27 ± 0.019 | 94.7 ± 3.71 | 2.24 ± 0.46 | 1 | > 20 | 47.7 ± 3.18 | 1.96 ± 0.27 |  |  | 
O=C(NCCN1CCOCC1)[C@H]1C[C@]23CCN(CC4CC4)[C@H](Cc4ccc(O)cc42)[C@]3(O)C1 [Compound 93, (2S,3aS,4R,9bS)-12-(cyclopropylmethyl)-3a,8-dihydroxy-N-(2-morpholinoethyl)-1,2,3,3a,4,5-hexahydro-4,9b-(epimino-ethano)cyclopenta[a]naphthalene-2-carboxamide] |  |  | 81.5 ± 1.27 | 1.52 ± 0.17 | 28.8 ± 4.91 |  |  |  | 0.64 ± 0.071 | 0.00395 ± 0.00065 | 
O=C(NCc1ccc(O)cc1O)[C@H]1C[C@]23CCN(CC4CC4)[C@H](Cc4ccc(O)cc42)[C@]3(O)C1 [Compound 42, (2S,3aS,4R,9bS)-12-(cyclopropylmethyl)-N-(2,4-dihydroxybenzyl)-3a,8-dihydroxy-1,2,3,3a,4,5-hexahydro-4,9b-(epimino-ethano)cyclopenta[a]naphthalene-2-carboxamide] | 87.7 ± 4.63 | 1.27 ± 0.076 | 98.3 ± 1.33 | 0.32 ± 0.059 | 1 | > 20 | 35 ± 1.15 | 1.33 ± 0.12 | 0.37 ± 0.13 |  | 0.4 ± 0.024
COc1ccc2c(c1)[C@]13CCN(CC4CC4)[C@H](C2)[C@]1(O)C[C@H](C(N)=O)C3 [Compound 11, (2R,3aS,4R,9bS)-12-(cyclopropylmethyl)-3a-hydroxy-8-methoxy-1,2,3,3a,4,5-hexahydro-4,9b-(epiminoethano)cyclo-penta[a]naphthalene-2-carboxamide] | 103 ± 1.67 | 1360 ± 49.8 |  |  |  |  |  |  | 182 ± 29.2 |  | 2980 ± 466
O=C(NCc1ccc(O)cc1O)[C@@H]1C[C@]23CCN(CC4CC4)[C@H](Cc4ccc(O)cc42)[C@]3(O)C1 [Compound 41, (2R,3aS,4R,9bS)-12-(cyclopropylmethyl)-N-(2,4-dihydroxybenzyl)-3a,8-dihydroxy-1,2,3,3a,4,5-hexahydro-4,9b-(epimino-ethano)cyclopenta[a]naphthalene-2-carboxamide] | 86.7 ± 6.74 | 1.02 ± 0.08 | 35.8 ± 3.07 | 1.74 ± 0.47 | 1 | > 20 | 25.3 ± 1.33 | 4.19 ± 1.02 |  |  | 
O=C(NCc1ccccc1)[C@H]1C[C@]23CCN(CC4CC4)[C@H](Cc4ccc(O)cc42)[C@]3(O)C1 [Compound 34, (2S,3aS,4R,9bS)-N-benzyl-12-(cyclopropylmethyl)-3a,8-dihydroxy-1,2,3,3a,4,5-hexahydro-4,9b-(epiminoethano)cyclopenta[a]naphthalene-2-carboxamide] | 93.3 ± 3.18 | 0.02 | 102 ± 2.73 | 0.094 ± 0.011 | 40 ± 1.53 |  | 94 ± 0.58 | 0.25 ± 0.027 | 0.083 ± 0.014 | 0.00375 ± 0.00066 | 
NC(=O)[C@H]1C[C@]23CCN(CC4CC4)[C@H](Cc4ccc(O)cc42)[C@]3(O)C1 [Compound 30, (2S,3aS,4R,9bS)-12-(cyclopropylmethyl)-3a,8-dihydroxy-1,2,3,3a,4,5-hexahydro-4,9b-(epiminoethano)cyclopenta-[a]naphthalene-2-carboxamide] | 100 ± 1.2 | 1.26 ± 0.05 | 50.7 ± 0.33 | 2.49 ± 0.09 | 1 | > 20 | 32 ± 1.15 | 1.62 ± 0.41 |  |  | 
N[C@@H]1CC23CCN(CC4CC4)[C@H](Cc4ccc(O)cc42)[C@]3(O)C1 (stereo in doubt) [Compound 22, (2R,3aS,4R,9bS)-2-amino-12-(cyclopropylmethyl)-1,2,3,3a,4,5-hexahydro-4,9b-(epiminoethano)-cyclopenta[a]naphthalene-3a,8-diol] | 101 ± 1.76 | 25.4 ± 2.09 | 77 ± 1 | 25.7 ± 4.99 | 1 | > 20 | 20.7 ± 2.4 | 111 ± 14.1 |  |  | 
O=C(NCc1ccc(Cl)c(Cl)c1)[C@@H]1C[C@]23CCN(CC4CC4)[C@H](Cc4ccc(O)cc42)[C@]3(O)C1 [Compound 46, (2R,3aS,4R,9bS)-12-(cyclopropylmethyl)-N-(3,4-dichlorobenzyl)-3a,8-dihydroxy-1,2,3,3a,4,5-hexahydro-4,9b-(epimino-ethano)cyclopenta[a]naphthalene-2-carboxamide] | 106 ± 4.26 | 0.11 ± 0.01 | 32 ± 5 | 0.2 ± 0.072 | 0 | > 20 | 38 ± 1.73 | 0.91 ± 0.05 |  |  | 
O=C(NCc1ccc(Cl)c(Cl)c1)[C@H]1C[C@]23CCN(CC4CC4)[C@H](Cc4ccc(O)cc42)[C@]3(O)C1 [Compound 47, (2S,3aS,4R,9bS)-12-(cyclopropylmethyl)-N-(3,4-dichlorobenzyl)-3a,8-dihydroxy-1,2,3,3a,4,5-hexahydro-4,9b-(epimino-ethano)cyclopenta[a]naphthalene-2-carboxamide] | 95 ± 5.29 | 0.015 | 88.8 ± 10 | 0.03 ± 0.01 | 86 ± 3.46 |  | 98.8 ± 1.49 | 0.05 ± 0.01 |  | 0.00276 ± 8.2e-05 | 
Cc1ccc(CNC(=O)[C@@H]2C[C@]34CCN(CC5CC5)[C@H](Cc5ccc(O)cc53)[C@]4(O)C2)cc1 [Compound 37, (2R,3aS,4R,9bS)-12-(cyclopropylmethyl)-3a,8-dihydroxy-N-(4-methylbenzyl)-1,2,3,3a,4,5-hexahydro-4,9b-(epimino-ethano)cyclopenta[a]naphthalene-2-carboxamide] | 105.3 ± 0.88 | 0.97 ± 0.11 | 32.5 ± 2.1 | 1.74 ± 0.39 | 1 | > 20 | 30.7 ± 2.67 | 8.48 ± 2.28 |  |  | 
